In PMC7247425, “MRP1-Collateral Sensitizers as a Novel Therapeutic Approach in Resistant Cancer Therapy: An In Vitro and In Vivo Study in Lung Resistant Tumor” (International Journal of Molecular Sciences, 2020):

Tests used:
MDCK-MRP1 cells = test: Antiproliferative MTT assay in MDCK-wt and MDCK-MRP1 cells, selectivity ratio; type: cell-based, canine; details: EC50 of MDCK cells/EC50 of MDCK-MRP1 cells
Method: Within the search for novel CS agents acting on MRP1 proteins, the compounds selected among the different series of sigma-2 ligands were investigated for their activity at MRP1, paralleled with their cytotoxicity in the parental Madin–Darby canine kidney (MDCK-wt) cells and in the MDR-derived cells (MDCK-MRP1) for the determination of their SR (EC50 parental cells/EC50 MDR cells). The activity at the MRP1 pump was determined measuring the transport inhibition of the pro-fluorescent probe Calcein-AM, an MRP1 substrate, in the MRP1-overexpressing cell line (MDCK-MRP1) by the in vitro biological assay usually performed to study an MRP1 interaction. […] The SR was measured as the EC50 of the MDCK cells/EC50 of the MDCK-MRP1 cells.
(§1) The determination of cell growth was performed using an MTT assay at 24 or 72 h. On day 1, 10,000 cells/well were seeded into 96-well plates in a volume of 100 μL. […] In all the experiments, the various drug solvents (ethanol, DMSO) were added in each control to evaluate a possible solvent cytotoxicity. After the established incubation time with drugs, 10 μL MTT (0.5 mg/mL) was added to each well, and after 3 h incubation at 37°C, the supernatant was removed. The formazan crystals were solubilized using 100 μL of DMSO and the absorbance values at 570 and 630 nm were determined on the microplate reader Victor 3 from PerkinElmer Life Sciences. The absorbance of the untreated cells was considered equal to 100% cell viability; the viability of cells measured in each experimental condition was expressed as a percentage of viable cells in the considered condition vs. the viability of the untreated cells.

A549/DX cells [1] = test: Cytotoxicity in A549/DX and parental A549 cells, selectivity ratio; type: cell-based, human; details: cytotoxicity in parental A549 vs resistant A549/DX cells, 24 h
Description: Therefore, A549/DX cells were selected as a model to investigate the CS properties of our compounds. Firstly, in order to confirm the data observed on the “pure” model MDCK-MRP1, we tested, in the same experimental conditions, the SR of F397, F400, and F421 by measuring their cytotoxicity in the resistant A549/DX cells and their parental counterpart A549, obtaining an SR ≥ 2 for all (SR = 2.5 for derivative F397, SR = 2.1 for F400, and SR = 2 for F421).
Since the doubling time of A549 cells is 22 h and the doubling time of A549/DX cells is 61 h (data not shown), in this first experimental set we used a 24 h time, i.e., the most suitable for A549 cells’ cytotoxicity as performed in the “pure” MRP1 model. Indeed, the accurate detection of cell viability in A549 cells was critical in calculating the SR in a reliable manner. The following experiments, all performed in A549/DX cells, were performed after 72 h, i.e., the best timing to detect a cytotoxic effect on the slowly growing resistant population.
The determination of cell growth was performed using an MTT assay at 24 or 72 h. On day 1, 10,000 cells/well were seeded into 96-well plates in a volume of 100 μL. On day 2, the drugs concentrations (0.1, 1, 10, 25 μM) were added. In all the experiments, the various drug solvents (ethanol, DMSO) were added in each control to evaluate a possible solvent cytotoxicity. After the established incubation time with drugs, 10 μL MTT (0.5 mg/mL) was added to each well, and after 3 h incubation at 37°C, the supernatant was removed. The formazan crystals were solubilized using 100 μL of DMSO and the absorbance values at 570 and 630 nm were determined on the microplate reader Victor 3 from PerkinElmer Life Sciences. The absorbance of the untreated cells was considered equal to 100% cell viability; the viability of cells measured in each experimental condition was expressed as a percentage of viable cells in the considered condition vs. the viability of the untreated cells.

A549/DX cells [2] = test: Cell viability (MTT) of A549/DX cells at 72 h, alone and in co-administration; type: cell-based, human; details: for Cell viability / cytotoxic effect, compound alone: 10 μM; for Cell viability in co-administration with MRP1 inhibitor MK571: compound 10 μM + MK571 25 μM; for Cytotoxic effect in co-administration with cis-Pt: compound 10 μM + cis-Pt 25 μM
Method: Indeed, the accurate detection of cell viability in A549 cells was critical in calculating the SR in a reliable manner.
First, we wondered if there was a correlation between the inhibition of the MRP1 protein and the CS properties of the compounds.
as §1

A549/DX = test: Mitochondrial ROS production in A549/DX (MitoSOX Red); type: cell-based, human; details: 24 h; for Mitochondrial ROS production with cis-Pt: 10 μM + cis-Pt 25 μM; for Mitochondrial ROS production, compound alone / Mitochondrial ROS production with Mitotempol: 10 μM; for Mitochondrial ROS production with Mitotempol: Mitotempol 10 mM
Method: An increase in ROS of mitochondrial origin is particularly effective in killing multidrug-resistant cells. To investigate whether the ROS were of mithocondrial origin, the same experiment was set up evaluating ROS production at 24 h with Mitotempol, the scavenger of mithocondrial ROS.
Here, 1 × 10^6 cells were re-suspended in a final volume of 0.5 mL PBS and incubated for 30 min at 37 °C with 5 μM of the fluorescent probe MitoSOX Red (Invitrogen Life Technology, Milano, Italy) in the dark. Cells were then centrifuged at 13,000× g at 37 °C and re-suspended in 0.5 mL PBS. The fluorescence of each sample, considered as the index of ROS levels, was read at 510 (λ excitation) and 580 nm (λ emission) using a Synergy HT Multi-Mode Microplate Reader (Bio-Tek Instruments). The results were expressed as nmol mitochondrial ROS/mg cell proteins. A preliminary titration curve was set up by incubating the cells for 1 h with the cells treated with serial dilutions (10–0.01 nM) of the pro-oxidant agent menadione.

sigma-2 receptors = details: cited from earlier work; for Ki: read-out: Ki towards sigma-2 receptors
MRP1 = MRP1 (Homo sapiens, UniProt P33527); test: Calcein-AM transport inhibition in MDCK-MRP1 cells (MRP1 activity)
Sequence of MRP1 (P33527 whole entry): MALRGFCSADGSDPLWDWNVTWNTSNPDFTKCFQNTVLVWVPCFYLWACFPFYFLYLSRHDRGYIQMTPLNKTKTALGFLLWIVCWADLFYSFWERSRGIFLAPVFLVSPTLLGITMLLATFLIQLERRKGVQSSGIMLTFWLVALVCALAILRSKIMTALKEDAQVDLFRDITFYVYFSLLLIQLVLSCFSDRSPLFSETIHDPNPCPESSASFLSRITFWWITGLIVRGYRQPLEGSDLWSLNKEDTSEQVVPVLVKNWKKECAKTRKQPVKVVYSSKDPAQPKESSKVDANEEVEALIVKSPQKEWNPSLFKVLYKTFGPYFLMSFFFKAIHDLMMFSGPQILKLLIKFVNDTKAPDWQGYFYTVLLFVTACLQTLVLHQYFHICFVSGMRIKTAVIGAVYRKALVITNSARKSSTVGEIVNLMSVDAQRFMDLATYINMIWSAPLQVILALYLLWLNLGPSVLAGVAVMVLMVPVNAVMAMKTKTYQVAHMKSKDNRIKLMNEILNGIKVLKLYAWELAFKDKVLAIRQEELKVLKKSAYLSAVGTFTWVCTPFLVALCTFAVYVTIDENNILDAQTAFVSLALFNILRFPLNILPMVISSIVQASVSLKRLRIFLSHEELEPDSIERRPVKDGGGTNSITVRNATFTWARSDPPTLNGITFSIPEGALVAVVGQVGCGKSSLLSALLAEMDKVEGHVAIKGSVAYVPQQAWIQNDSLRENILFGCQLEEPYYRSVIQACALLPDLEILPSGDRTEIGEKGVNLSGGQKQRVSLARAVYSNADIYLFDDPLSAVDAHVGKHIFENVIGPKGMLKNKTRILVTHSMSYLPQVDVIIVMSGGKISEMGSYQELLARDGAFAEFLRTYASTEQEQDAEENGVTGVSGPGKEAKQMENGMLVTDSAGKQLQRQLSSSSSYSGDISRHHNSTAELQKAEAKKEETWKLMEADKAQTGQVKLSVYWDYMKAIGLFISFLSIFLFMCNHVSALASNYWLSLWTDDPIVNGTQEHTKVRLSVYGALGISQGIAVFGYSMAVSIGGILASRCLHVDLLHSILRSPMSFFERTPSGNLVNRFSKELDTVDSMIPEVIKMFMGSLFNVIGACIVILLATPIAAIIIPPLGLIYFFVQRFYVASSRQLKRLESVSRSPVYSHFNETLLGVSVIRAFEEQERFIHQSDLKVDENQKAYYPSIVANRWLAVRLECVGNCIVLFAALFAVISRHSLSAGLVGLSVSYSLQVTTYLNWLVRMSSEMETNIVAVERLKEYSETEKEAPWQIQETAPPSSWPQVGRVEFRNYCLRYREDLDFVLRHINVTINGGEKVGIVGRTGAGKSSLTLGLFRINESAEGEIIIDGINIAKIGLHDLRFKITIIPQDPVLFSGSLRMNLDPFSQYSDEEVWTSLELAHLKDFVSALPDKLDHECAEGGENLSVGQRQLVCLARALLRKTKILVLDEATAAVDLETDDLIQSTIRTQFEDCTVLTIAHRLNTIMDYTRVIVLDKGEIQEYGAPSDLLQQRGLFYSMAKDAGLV
Method: Each cell line (30,000 cells per well) was seeded into a black CulturePlate 96/well plate with a 100 μL medium and allowed to become confluent overnight. […] In these experimental conditions, the Calcein cell accumulation in the absence and in the presence of the tested compounds was evaluated and the fluorescence basal level was estimated with the untreated cells. In treated wells, the increase in fluorescence with respect to the basal level was measured. EC50 values were determined by fitting the fluorescence increase percentage vs. log(dose).

Row | SMILES | SR (selectivity ratio) (MDCK-MRP1 cells) | SR (selectivity ratio) (A549/DX cells [1]) | Cell viability / cytotoxic effect, compound alone (A549/DX cells [2]) | Cell viability in co-administration with MRP1 inhibitor MK571 (A549/DX cells [2]) | Cytotoxic effect in co-administration with cis-Pt (A549/DX cells [2]) | Mitochondrial ROS production with cis-Pt (A549/DX) | Mitochondrial ROS production, compound alone (A549/DX) | Mitochondrial ROS production with Mitotempol (A549/DX) | Ki (sigma-2 receptors) | EC50 (MRP1) | sigma-2 receptor affinity (sigma-2 receptors)
1 | COc1ccc(CNCCCCc2cn(-c3ccc(F)cc3)c3ccccc23)cc1OC [F421, N-{4-[1-(4-fluorophenyl)-1H-indol-3-yl]butyl}-3,4-dimethoxybenzylamine] | 2.47 | 2 | cytotoxic effect on their own | reverted by the MRP1 inhibitor MK571 | drastically increases upon co-administration with cis-Pt | enforced by the concurrent administration of cis-Pt | increased the intramithocondrial ROS | reversed by Mitotempol | 0.169 µM | 28 ± 4.8 µM | 
2 | COc1cc2c(cc1OC)CN(CCCCc1cn(-c3ccc(F)cc3)c3ccccc13)CC2 [F397, 6,7-dimethoxy-2-{4-[1-(4-fluorophenyl)-1H-indol-3-yl]butyl}-1,2,3,4-tetrahydroisoquinoline] | 3.41 | 2.5 | cytotoxic effect on their own | reverted by the MRP1 inhibitor MK571 | drastically increases upon co-administration with cis-Pt | enforced by the concurrent administration of cis-Pt | increased the intramithocondrial ROS | reversed by Mitotempol | 0.00534 µM | 16.7 ± 3.2 µM | 
3 | COc1cc2c(cc1OC)CN(C(=O)CCC1CCCc3c(OC)cccc31)CC2 (stereo not drawn) [F400, 6,7-dimethoxy-2-[3-(5-methoxy-1,2,3,4-tetrahydronaphthalen-1-yl)propionyl]-1,2,3,4 tetrahydroisoquinoline] | 5.91 | 2.1 | cytotoxic effect on their own | reverted by the MRP1 inhibitor MK571 | drastically increases upon co-administration with cis-Pt | enforced by the concurrent administration of cis-Pt | increased the intramithocondrial ROS | reversed by Mitotempol |  | 17.6 ± 3.8 µM | devoid of sigma-2 receptor affinity
